Test results published in patent publication US9149038B2, “4-amino-6-(heterocyclic)picolinates and 6-amino-2-(heterocyclic)pyrimidine-4-carboxylates and their use as herbicides” (Dow AgroSciences LLC, priority 2013, dated 2015).
Where two headings read alike, the source gives them in different places.

System: Wheat and Barley and weed species
Test: Post-Emergent Test III: postemergent herbicidal activity in wheat and barley, visual rating after 21 d and probit GR20/GR50/GR80/GR90 (Tables 9-13)
Assay type: in vivo
Details: for GR20 HORVS / GR20 TRZAS: growth reduction of 20%; for pest or weed control at 17.5 g/ha / pest or weed control at 35 g/ha / pest or weed control at 70 g/ha: post-emergence, 504 h
Source text: Herbicidal evaluations were made visually on a scale of 0 to 100 where 0 represents no activity and 100 represents complete plant death.
Seeds of the desired test plant species were planted in Sun Gro MetroMix® 306 planting mixture, which typically has a pH of 6.0 to 6.8 and an organic matter content of about 30 percent, in plastic pots with a surface area of 103.2 square centimeters (cm^2). When required to ensure good germination and healthy plants, a fungicide treatment and/or other chemical or physical treatment was applied. The plants were grown for 7-36 days (d) in a greenhouse with an approximate 14 hour (h) photoperiod which was maintained at about 18° C. during the day and 17° C. during the night. Nutrients and water were added on a regular basis and supplemental lighting was provided with overhead metal halide 1000-Watt lamps as necessary. The plants were employed for testing when they reached the second or third true leaf stage.
A weighed amount, determined by the highest rate to be tested, of each test compound was placed in a 25 mL glass vial and was dissolved in 4 mL of a 97:3 v/v mixture of acetone and DMSO to obtain concentrated stock solutions. […] The concentrated stock solutions obtained were diluted with 20 mL of an aqueous mixture containing acetone, water, isopropyl alcohol, DMSO, Agri-Dex crop oil concentrate, and X-77 surfactant in a 48:39:10:1.5:1.5:0.02 v/v ratio to obtain spray solutions containing the highest application rates. Additional application rates were obtained by serial dilution of 12 mL of the high rate solution into a solution containing 2 mL of a 97:3 v/v mixture of acetone and DMSO and 10 mL of an aqueous mixture containing acetone, water, isopropyl alcohol, DMSO, Agri-Dex crop oil concentrate, and X-77 surfactant in a 48:39:10:1.5:1.5:0.02 v/v ratio to obtain ½×, ¼×, ⅛× and 1/16× rates of the high rate. Compound requirements are based upon a 12 mL application volume at a rate of 187 liters per hectare (L/ha). Formulated compounds were applied to the plant material with an overhead Mandel track sprayer equipped with 8002E nozzles calibrated to deliver 187 L/ha over an application area of 0.503 square meters at a spray height of 18 inches (43 cm) above the average plant canopy height. Control plants were sprayed in the same manner with the solvent blank.
The treated plants and control plants were placed in a greenhouse as described above and watered by subirrigation to prevent wash-off of the test compounds. After 21 d, the condition of the test plants as compared with that of the untreated plants was determined visually and scored on a scale of 0 to 100 percent where 0 corresponds to no injury and 100 corresponds to complete kill and are presented as indicated in Table 4.
By applying the well-accepted probit analysis as described by J. Berkson in Journal of the American Statistical Society, 48, 565 (1953) and by D. Finney in “Probit Analysis” Cambridge University Press (1952), herbicidal injury of a specific compound at various rates can be used to calculate GR20, GR50, GR80 and GR90 values, which are defined as growth reduction factors that correspond to the effective dose of herbicide required to provide plant growth reduction (GR) of 20 percent, 50 percent, 80 percent and 90 percent, respectively. Probit analysis was applied to data collected from multiple dose rates of individual compounds utilizing the procedures explained in the following examples. The data for some of the dose rates and analysis of all of the dose rates are captured in the following tables.

[1] = ALOMY black-grass (Alopecurus myosuroides), growth reduction of 50%, probit analysis
[2] = ALOMY black-grass (Alopecurus myosuroides), growth reduction of 80%, probit analysis
[3] = ALOMY black-grass (Alopecurus myosuroides), growth reduction of 90%, probit analysis
[4] = APESV bentgrass (Apera spica-venti), growth reduction of 50%, probit analysis
[5] = APESV bentgrass (Apera spica-venti), growth reduction of 80%, probit analysis
[6] = APESV bentgrass (Apera spica-venti), growth reduction of 90%, probit analysis
[7] = HORVS barley, spring (crop), probit analysis
[8] = Hordeum vulgare, HORVS barley, spring (crop), 17.5 g ai/ha, read-out: Visual Growth Reduction (%) 21 Days After Application HORVS
[9] = Hordeum vulgare, HORVS barley, spring (crop), 35 g ai/ha, read-out: Visual Growth Reduction (%) 21 Days After Application HORVS
[10] = Hordeum vulgare, HORVS barley, spring (crop), 70 g ai/ha, read-out: Visual Growth Reduction (%) 21 Days After Application HORVS
[11] = LOLSS ryegrass, growth reduction of 50%, probit analysis
[12] = LOLSS ryegrass, growth reduction of 80%, probit analysis
[13] = LOLSS ryegrass, growth reduction of 90%, probit analysis
[14] = SETVI green foxtail (Setaria viridis), growth reduction of 50%, probit analysis
[15] = SETVI green foxtail (Setaria viridis), growth reduction of 80%, probit analysis
[16] = SETVI green foxtail (Setaria viridis), growth reduction of 90%, probit analysis
[17] = TRZAS wheat, spring (crop), probit analysis
[18] = Triticum aestivum, TRZAS wheat, spring (crop), 17.5 g ai/ha, read-out: Visual Growth Reduction (%) 21 Days After Application TRZAS
[19] = Triticum aestivum, TRZAS wheat, spring (crop), 35 g ai/ha, read-out: Visual Growth Reduction (%) 21 Days After Application TRZAS
[20] = Triticum aestivum, TRZAS wheat, spring (crop), 70 g ai/ha, read-out: Visual Growth Reduction (%) 21 Days After Application TRZAS
[21] = ALOMY black-grass (Alopecurus myosuroides), 17.5 g ai/ha, read-out: Visual Growth Reduction (%) 21 Days After Application ALOMY
[22] = ALOMY black-grass (Alopecurus myosuroides), 35 g ai/ha, read-out: Visual Growth Reduction (%) 21 Days After Application ALOMY
[23] = ALOMY black-grass (Alopecurus myosuroides), 70 g ai/ha, read-out: Visual Growth Reduction (%) 21 Days After Application ALOMY
[24] = APESV bentgrass (Apera spica-venti), 17.5 g ai/ha, read-out: Visual Growth Reduction (%) 21 Days After Application APESV
[25] = APESV bentgrass (Apera spica-venti), 35 g ai/ha, read-out: Visual Growth Reduction (%) 21 Days After Application APESV
[26] = APESV bentgrass (Apera spica-venti), 70 g ai/ha, read-out: Visual Growth Reduction (%) 21 Days After Application APESV
[27] = LOLSS ryegrass, 17.5 g ai/ha, read-out: Visual Growth Reduction (%) 21 Days After Application LOLSS
[28] = LOLSS ryegrass, 35 g ai/ha, read-out: Visual Growth Reduction (%) 21 Days After Application LOLSS
[29] = LOLSS ryegrass, 70 g ai/ha, read-out: Visual Growth Reduction (%) 21 Days After Application LOLSS
[30] = SETVI green foxtail (Setaria viridis), 17.5 g ai/ha, read-out: Visual Growth Reduction (%) 21 Days After Application SETVI
[31] = SETVI green foxtail (Setaria viridis), 35 g ai/ha, read-out: Visual Growth Reduction (%) 21 Days After Application SETVI
[32] = SETVI green foxtail (Setaria viridis), 70 g ai/ha, read-out: Visual Growth Reduction (%) 21 Days After Application SETVI

## COC(=O)c1nc(-c2cc3c(cc2F)OC(F)(F)O3)c(F)c(N)c1Cl [Compound 9]
[1]
  GR50 ALOMY: 13 g ai/ha
[2]
  GR80 ALOMY: 26 g ai/ha
[3]
  GR90 ALOMY: 38 g ai/ha
[4]
  GR50 APESV: 30 g ai/ha
[5]
  GR80 APESV: 61 g ai/ha
[6]
  GR90 APESV: 89 g ai/ha
[7]
  GR20 HORVS: 3 g ai/ha
[8]
  pest or weed control at 17.5 g/ha: 60 to 74%
[9]
  pest or weed control at 35 g/ha: 85 to 94%
[10]
  pest or weed control at 70 g/ha: 85 to 94%
KCHSC kochia (Kochia scoparia), 17.5 g ai/ha
  Visual Growth Reduction (%) 21 Days After Application KCHSC: G (0-29)
KCHSC kochia (Kochia scoparia), 35 g ai/ha
  Visual Growth Reduction (%) 21 Days After Application KCHSC: G (0-29)
KCHSC kochia (Kochia scoparia), 70 g ai/ha
  Visual Growth Reduction (%) 21 Days After Application KCHSC: G (0-29)
KCHSC kochia (Kochia scoparia), growth reduction of 50%, probit analysis
  GR50 KCHSC: >70 g ai/ha
KCHSC kochia (Kochia scoparia), growth reduction of 80%, probit analysis
  GR80 KCHSC: >70 g ai/ha
KCHSC kochia (Kochia scoparia), growth reduction of 90%, probit analysis
  GR90 KCHSC: >70 g ai/ha
[11]
  GR50 LOLSS: 70 g ai/ha
[12]
  GR80 LOLSS: >70 g ai/ha
[13]
  GR90 LOLSS: >70 g ai/ha
[14]
  GR50 SETVI: 21 g ai/ha
[15]
  GR80 SETVI: 46 g ai/ha
[16]
  GR90 SETVI: 71 g ai/ha
[17]
  GR20 TRZAS: 4 g ai/ha
[18]
  pest or weed control at 17.5 g/ha: 60 to 74%
[19]
  pest or weed control at 35 g/ha: 75 to 84%
[20]
  pest or weed control at 70 g/ha: 75 to 84%
[21]
  pest or weed control at 17.5 g/ha: 75 to 84%
[22]
  pest or weed control at 35 g/ha: 85 to 94%
[23]
  pest or weed control at 70 g/ha: 85 to 94%
[24]
  pest or weed control at 17.5 g/ha: 0 to 29%
[25]
  pest or weed control at 35 g/ha: 60 to 74%
[26]
  pest or weed control at 70 g/ha: 75 to 84%
[27]
  pest or weed control at 17.5 g/ha: 0 to 29%
[28]
  pest or weed control at 35 g/ha: 0 to 29%
[29]
  pest or weed control at 70 g/ha: 45 to 59%
[30]
  pest or weed control at 17.5 g/ha: 45 to 59%
[31]
  pest or weed control at 35 g/ha: 75 to 84%
[32]
  pest or weed control at 70 g/ha: 85 to 94%

## Nc1c(F)c(-c2cc3c(cc2F)OC(F)(F)O3)nc(C(=O)O)c1Cl [Compound 13]
[1]
  GR50 ALOMY: 20 g ai/ha
[2]
  GR80 ALOMY: 40 g ai/ha
[3]
  GR90 ALOMY: 57 g ai/ha
[4]
  GR50 APESV: >70 g ai/ha
[5]
  GR80 APESV: >70 g ai/ha
[6]
  GR90 APESV: >70 g ai/ha
[7]
  GR20 HORVS: 2 g ai/ha
[8]
  pest or weed control at 17.5 g/ha: 60 to 74%
[9]
  pest or weed control at 35 g/ha: 75 to 84%
[10]
  pest or weed control at 70 g/ha: 85 to 94%
[11]
  GR50 LOLSS: >70 g ai/ha
[12]
  GR80 LOLSS: >70 g ai/ha
[13]
  GR90 LOLSS: >70 g ai/ha
MATCH wild chamomile (Matricaria recutita L.), 17.5 g ai/ha
  Visual Growth Reduction (%) 21 Days After Application MATCH: G (0-29)
MATCH wild chamomile (Matricaria recutita L.), 35 g ai/ha
  Visual Growth Reduction (%) 21 Days After Application MATCH: F (30-44)
MATCH wild chamomile (Matricaria recutita L.), 70 g ai/ha
  Visual Growth Reduction (%) 21 Days After Application MATCH: D (60-74)
MATCH wild chamomile (Matricaria recutita L.), growth reduction of 50%, probit analysis
  GR50 MATCH: 58 g ai/ha
MATCH wild chamomile (Matricaria recutita L.), growth reduction of 80%, probit analysis
  GR80 MATCH: >70 g ai/ha
MATCH wild chamomile (Matricaria recutita L.), growth reduction of 90%, probit analysis
  GR90 MATCH: >70 g ai/ha
[14]
  GR50 SETVI: 4 g ai/ha
[15]
  GR80 SETVI: 20 g ai/ha
[16]
  GR90 SETVI: 45 g ai/ha
[17]
  GR20 TRZAS: 2 g ai/ha
[18]
  pest or weed control at 17.5 g/ha: 60 to 74%
[19]
  pest or weed control at 35 g/ha: 75 to 84%
[20]
  pest or weed control at 70 g/ha: 75 to 84%
VERPE bird's-eye speedwell (veronica persica), 17.5 g ai/ha
  Visual Growth Reduction (%) 21 Days After Application VERPE: C (75-84)
VERPE bird's-eye speedwell (veronica persica), 35 g ai/ha
  Visual Growth Reduction (%) 21 Days After Application VERPE: B (85-94)
VERPE bird's-eye speedwell (veronica persica), 70 g ai/ha
  Visual Growth Reduction (%) 21 Days After Application VERPE: A (95-100)
VERPE bird's-eye speedwell (veronica persica), growth reduction of 50%, probit analysis
  GR50 VERPE: 3 g ai/ha
VERPE bird's-eye speedwell (veronica persica), growth reduction of 80%, probit analysis
  GR80 VERPE: 16 g ai/ha
VERPE bird's-eye speedwell (veronica persica), growth reduction of 90%, probit analysis
  GR90 VERPE: 37 g ai/ha
[21]
  pest or weed control at 17.5 g/ha: 45 to 59%
[22]
  pest or weed control at 35 g/ha: 60 to 74%
[23]
  pest or weed control at 70 g/ha: 95 to 100%
[24]
  pest or weed control at 17.5 g/ha: 0 to 29%
[25]
  pest or weed control at 35 g/ha: 45 to 59%
[26]
  pest or weed control at 70 g/ha: 60 to 74%
[27]
  pest or weed control at 17.5 g/ha: 0 to 29%
[28]
  pest or weed control at 35 g/ha: 0 to 29%
[29]
  pest or weed control at 70 g/ha: 0 to 29%
[30]
  pest or weed control at 17.5 g/ha: 60 to 74%
[31]
  pest or weed control at 35 g/ha: 75 to 84%
[32]
  pest or weed control at 70 g/ha: 95 to 100%
